Assay results published in PubChem BioAssay AID1918947 (Molecular Pharmacology Branch, DTP, NCI, 2023).
Where “and” joins values, the source holds several entries; their conditions need not be identical. Identical values can stand only once.

System: A498 complex spheroid viability
Test: Anticancer human tumor A498 cell line growth inhibition;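 further: spheroids exposed to agents for seven days before readout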;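 on viability, T/C: 100% = DMSO vehicle-treated spheroids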
Conditions: for viability, T/C: stronger effect = lower value; active means viability on the fitted dose curve at most 10% of control; inactive means the rest
In short: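 Complex spheroids of tumor cells with HUVEC and human MSCs, exposed to iadademstat combined with other agents. Each agent tested in half-log steps from near clinical Cmax (else 10 microM top), DMSO ≤0.25%.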

[1] = curve of first compound, second compound 0.1 µM
[2] = curve of first compound, second compound 0.316 µM
[3] = curve of first compound, second compound 1 µM
[4] = curve of first compound, second compound 3.16 µM
[5] = curve of first compound, second compound 10 µM

NC1CCC(NC2CC2c2ccccc2)CC1 (stereo not given)
> 10 µM: IC50 (compound alone, run of 11/29/2021)
inactive: viability, T/C (compound 0.1 µM) 86.8% [middle of 25 runs] | viability, T/C (compound 0.316 µM) 85.2% and 90.6% | viability, T/C (compound 1 µM) 86% [middle of 25 runs] | viability, T/C (compound 3.16 µM) 84.7% [middle of 25 runs] | viability, T/C (compound 10 µM) 75.1% [middle of 23 runs]

O=C(c1cc(Cc2n[nH]c(=O)c3ccccc23)ccc1F)N1CCN(C(=O)C2CC2)CC1
inactive: viability, T/C (compound 0.0316 µM) 99% and 102% | viability, T/C (compound 0.1 µM) 108% and 105% | viability, T/C (compound 0.316 µM) 96% and 101% | viability, T/C (compound 1 µM) 102% and 101% | viability, T/C (compound 3.16 µM) 103% and 93.4% | viability, T/C (compound 10 µM) 88.9% and 84.9%
> 10 µM: IC50 (curve of compound)

CC(C)CC(NC(=O)C(Cc1ccccc1)NC(=O)c1cnccn1)B(O)O (stereo not given) + NC1CC1c1ccc(-c2cccc(O)c2)cc1
0.000661 µM: IC50 [1]
0.00066 µM: IC50 [3]
0.00069 µM: IC50 [2]
inactive: viability, T/C (second compound 0.1 µM, first compound 0.000316 µM) 105% | viability, T/C (second compound 0.1 µM, first compound 0.001 µM) 19.2% | viability, T/C (second compound 0.316 µM, first compound 0.000316 µM) 109% | viability, T/C (second compound 0.316 µM, first compound 0.001 µM) 21.9% | viability, T/C (second compound 1 µM, first compound 0.000316 µM) 106% | viability, T/C (second compound 1 µM, first compound 0.001 µM) 18.4% | viability, T/C (second compound 3.16 µM, first compound 0.000316 µM) 95.6% | viability, T/C (second compound 3.16 µM, first compound 0.001 µM) 13.3% | viability, T/C (second compound 10 µM, first compound 0.000316 µM) 93.7% | viability, T/C (second compound 10 µM, first compound 0.001 µM) 15.9%
0.000604 µM: IC50 [5]
0.000598 µM: IC50 [4]
active: viability, T/C (second compound 0.1 µM, first compound 0.00316 µM) 2.39% | viability, T/C (second compound 0.1 µM, first compound 0.01 µM) 0.87% | viability, T/C (second compound 0.1 µM, first compound 0.0316 µM) 1% | viability, T/C (second compound 0.1 µM, first compound 0.1 µM) 0.39% | viability, T/C (second compound 0.316 µM, first compound 0.00316 µM) 3.05% | viability, T/C (second compound 0.316 µM, first compound 0.01 µM) 1.15% | viability, T/C (second compound 0.316 µM, first compound 0.0316 µM) 0.51% | viability, T/C (second compound 0.316 µM, first compound 0.1 µM) 0.37% | viability, T/C (second compound 1 µM, first compound 0.00316 µM) 2.67% | viability, T/C (second compound 1 µM, first compound 0.01 µM) 0.79% | viability, T/C (second compound 1 µM, first compound 0.0316 µM) 0.63% | viability, T/C (second compound 1 µM, first compound 0.1 µM) 0.4% | viability, T/C (second compound 3.16 µM, first compound 0.00316 µM) 2.6% | viability, T/C (second compound 3.16 µM, first compound 0.01 µM) 1.41% | viability, T/C (second compound 3.16 µM, first compound 0.0316 µM) 0.42% | viability, T/C (second compound 3.16 µM, first compound 0.1 µM) 0.5% | viability, T/C (second compound 10 µM, first compound 0.00316 µM) 2.17% | viability, T/C (second compound 10 µM, first compound 0.01 µM) 0.62% | viability, T/C (second compound 10 µM, first compound 0.0316 µM) 0.39% | viability, T/C (second compound 10 µM, first compound 0.1 µM) 0.43%

COc1cc(Nc2ncc3c(n2)-c2ccc(Cl)cc2C(c2c(F)cccc2OC)=NC3)ccc1C(=O)O
> 1 µM and 0.381 µM: IC50 (curve of compound)
inactive: viability, T/C (compound 0.00316 µM) 95.5% and 94.2% | viability, T/C (compound 0.01 µM) 84.6% and 64.9% | viability, T/C (compound 0.0316 µM) 76.9% and 71.9% | viability, T/C (compound 0.1 µM) 66.4% and 62.6% | viability, T/C (compound 0.316 µM) 60% and 54.1% | viability, T/C (compound 1 µM) 50.4% and 40.4%

CCN(c1cc(-c2ccc(CN3CCOCC3)cc2)cc(C(=O)NCc2c(C)cc(C)[nH]c2=O)c1C)C1CCOCC1 + NC1CCC(NC2CC2c2ccccc2)CC1
inactive: viability, T/C (second compound 0.1 µM, first compound 0.00949 µM) 85.8% | viability, T/C (second compound 0.1 µM, first compound 0.03 µM) 90.7% | viability, T/C (second compound 0.1 µM, first compound 0.0949 µM) 92.1% | viability, T/C (second compound 0.1 µM, first compound 0.3 µM) 91.4% | viability, T/C (second compound 0.1 µM, first compound 0.949 µM) 94.4% | viability, T/C (second compound 0.1 µM, first compound 3 µM) 92.9% | viability, T/C (second compound 0.316 µM, first compound 0.00949 µM) 93.2% | viability, T/C (second compound 0.316 µM, first compound 0.03 µM) 101% | viability, T/C (second compound 0.316 µM, first compound 0.0949 µM) 100% | viability, T/C (second compound 0.316 µM, first compound 0.3 µM) 98.9% | viability, T/C (second compound 0.316 µM, first compound 0.949 µM) 92.4% | viability, T/C (second compound 0.316 µM, first compound 3 µM) 92.9% | viability, T/C (second compound 1 µM, first compound 0.00949 µM) 91.7% | viability, T/C (second compound 1 µM, first compound 0.03 µM) 97% | viability, T/C (second compound 1 µM, first compound 0.0949 µM) 97.3% | viability, T/C (second compound 1 µM, first compound 0.3 µM) 90.1% | viability, T/C (second compound 1 µM, first compound 0.949 µM) 86.8% | viability, T/C (second compound 1 µM, first compound 3 µM) 87.2% | viability, T/C (second compound 3.16 µM, first compound 0.00949 µM) 87.3% | viability, T/C (second compound 3.16 µM, first compound 0.03 µM) 95% | viability, T/C (second compound 3.16 µM, first compound 0.0949 µM) 90.6% | viability, T/C (second compound 3.16 µM, first compound 0.3 µM) 89.1% | viability, T/C (second compound 3.16 µM, first compound 0.949 µM) 85.8% | viability, T/C (second compound 3.16 µM, first compound 3 µM) 78.2% | viability, T/C (second compound 10 µM, first compound 0.00949 µM) 80.4% | viability, T/C (second compound 10 µM, first compound 0.03 µM) 87.5% | viability, T/C (second compound 10 µM, first compound 0.0949 µM) 88.4% | viability, T/C (second compound 10 µM, first compound 0.3 µM) 82.1% | viability, T/C (second compound 10 µM, first compound 0.949 µM) 82.7% | viability, T/C (second compound 10 µM, first compound 3 µM) 72.9%
> 3 µM: IC50 [1] | IC50 [2] | IC50 [3] | IC50 [4] | IC50 [5]
